Measured values taken from PubChem BioAssay AID1963834 (Molecular Pharmacology Branch, DTP, NCI, 2024).

System: 873145-292-R-J1-PDC complex spheroid viability
Experiment: Anticancer human tumor 873145-292-R-J1-PDC patient-derived renal clear cell carcinoma cell line growth inhibition [POLQ]
Settings: for IC50: curve of first compound; for viability, T/C: stronger effect = lower value
Experimental: Multicellular complex tumor spheroid response to Polymerase (POL) inhibitors (novobiocin, ART-558, RP6685) in combination with a variety of drugs and investigational agents in selected tumor cell lines
The POL inhibitors (novobiocin, ART-558, and RP6685) were evaluated both individually and in combination with standard of care and investigational anticancer small molecules within a complex spheroid model of solid tumors. . Complex spheroids include a stromal component modeled by human endothelial cells (HUVEC) and fibroblasts modeled by human mesenchymal stem cells (MSCs). The concentration ranges selected for each drug and investigational agent were based upon clinically achievable concentrations if the clinical Cmax of the agent was known.
Compounds. The drugs and investigational agents: novobiocin (NSC847541), ART-558 (NSC835418), RP-6685 (NSC848927), peposertib (NSC802822), ceralasertib (NSC780249), elimusertib (NSC800525), camonsertib (NSC841442), AZD-1390 (NSC803789), olaparib (NSC753686), talazoparib (NSC767125), rucaparib (NSC756644), sotorasib (NSC818433), MRTX-1133 (NSC836407), SN-38 (NSC673596), topotecan (NSC609699), epotoside (NSC141540), doxorubicin (NSC123127), gemcitabine (NSC613327), 5-fluorouracil (NSC19893), paclitaxel (NSC125973), vemurafenib (NSC761431), MSA-2 (NSC828583), SN-011 (NSC837082), adavosertib (NSC754352), prexasertib (NSC758257), carboplatin (NSC241240) and oxaliplatin (NSC266046), were obtained from the National Cancer Institute (NCI) Developmental Therapeutics Program Chemical Repository (21). The FDA-approved anticancer drug set is available from the Developmental Therapeutics Program at https://dtp.cancer.gov/organization/dscb/obtaining/. […] The stock solutions were prepared in dimethyl sulfoxide (DMSO, Sigma-Aldrich, St. Louis, MO, cat. D2650), except for the platinum compounds which were prepared in saline (Quality Biological, Gaithersburg, MD, cat. 114-055-101), at 800-fold the tested concentration and stored at -70 degrees C prior to their use. All drugs and investigational agents were tested over a range starting from a high concentration at or near the clinical Cmax and decreasing in half-log increments. If the clinical Cmax for an agent had not been determined, the highest concentration tested was 10 microM, except for SN-38, which was tested at a high concentration of 1 microM.
Cell Culture. All cells were maintained in an incubator at 37 degrees C and 5% CO2 with 95% humidity. The PDC lines were cultured according to standard operating procedures established by the NCI PDMR (https://pdmr.cancer.gov). Table 3 of the manuscript, lists the cell lines along with the number of the three cell types plated to form the mct-spheroids and media for tumor cell growth. After thawing, all PDC lines, except 997537-175-T-J1-PDC and 415267-285-R-J2-PDC, were cultured in Matrigel-coated flasks prepared with a working solution of 1X Ham's F-12 nutrient mix, without supplementation (Thermo Fisher Scientific, cat. 11765054), 100 U/mL penicillin-streptomycin (Thermo Fisher Scientific, cat. 15140122), and 2.5% Matrigel (Corning Inc., Corning, NY, cat. 354248) for the first three passages. The two PDC lines 997537-175-T-J1-PDC and 415267-285-R-J2-PDC were cultured on uncoated flasks. The 857933-349-R-J2-PDC line was cultured in 6C/Colon 1B media containing advanced DMEM/F-12 (Thermo Fisher Scientific, cat. 12634028), 10 mM HEPES (Thermo Fisher Scientific, cat. 15630080), 1X GlutaMAX supplement (Thermo Fisher Scientific, cat. 35050061), 0.1 mg/mL primocin (InvivoGen, San Diego, CA, cat. ant-pm-2), 10% defined fetal bovine serum, heat inactivated (HyClone Laboratories Inc., Logan, UT, cat. SH30070.03HI), 50% L-WRN conditioned media (ATCC, cat. CRL-3276), 1.25 mM N-Acetyl-L-cysteine (Sigma-Aldrich, cat. A9165), 10 mM nicotinamide (Sigma-Aldrich, cat. N0636), 1X B-27 supplement (Thermo Fisher Scientific, cat. 17504044), 1X N-2 supplement (Thermo Fisher Scientific, cat. […]

[1] = second compound 0.0316 µM, first compound 0.00316 µM
[2] = second compound 0.0316 µM, first compound 0.01 µM
[3] = second compound 0.0316 µM, first compound 0.0316 µM
[4] = second compound 0.0316 µM, first compound 0.1 µM
[5] = second compound 0.0316 µM, first compound 0.316 µM
[6] = second compound 0.0316 µM, first compound 1 µM
[7] = second compound 0.1 µM, first compound 0.00316 µM
[8] = second compound 0.1 µM, first compound 0.01 µM
[9] = second compound 0.1 µM, first compound 0.0316 µM
[10] = second compound 0.1 µM, first compound 0.1 µM
[11] = second compound 0.1 µM, first compound 0.316 µM
[12] = second compound 0.1 µM, first compound 1 µM
[13] = second compound 0.316 µM, first compound 0.00316 µM
[14] = second compound 0.316 µM, first compound 0.01 µM
[15] = second compound 0.316 µM, first compound 0.0316 µM
[16] = second compound 0.316 µM, first compound 0.1 µM
[17] = second compound 0.316 µM, first compound 0.316 µM
[18] = second compound 0.316 µM, first compound 1 µM
[19] = second compound 1 µM, first compound 0.00316 µM
[20] = second compound 1 µM, first compound 0.01 µM
[21] = second compound 1 µM, first compound 0.0316 µM
[22] = second compound 1 µM, first compound 0.1 µM
[23] = second compound 1 µM, first compound 0.316 µM
[24] = second compound 1 µM, first compound 1 µM
[25] = second compound 3.16 µM, first compound 0.00316 µM
[26] = second compound 3.16 µM, first compound 0.01 µM
[27] = second compound 3.16 µM, first compound 0.0316 µM
[28] = second compound 3.16 µM, first compound 0.1 µM
[29] = second compound 3.16 µM, first compound 0.316 µM
[30] = second compound 3.16 µM, first compound 1 µM
[31] = second compound 10 µM, first compound 0.00316 µM
[32] = second compound 10 µM, first compound 0.01 µM
[33] = second compound 10 µM, first compound 0.0316 µM
[34] = second compound 10 µM, first compound 0.1 µM
[35] = second compound 10 µM, first compound 0.316 µM
[36] = second compound 10 µM, first compound 1 µM
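Also: spheroids exposed to compounds for 7 days before viability readout.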
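For viability, T/C in this document: luminescence signal used as surrogate for viable cell content; 100% = DMSO vehicle control viability.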

CCc1c2c(nc3ccc(O)cc13)-c1cc3c(c(=O)n1C2)COC(=O)[C@]3(O)CC + Nc1ccc(C#CCN(C(=O)Cc2ncc(C(F)(F)F)cc2C(F)(F)F)c2ccc(F)cc2)nn1
IC50 (second compound 0.0316 µM): 143 nM | IC50 (second compound 0.1 µM): 66.2 nM | IC50 (second compound 0.316 µM): 119 nM | IC50 (second compound 1 µM): 114 nM | IC50 (second compound 3.16 µM): 79 nM | IC50 (second compound 10 µM): 173 nM | viability, T/C [1]: 104% | viability, T/C [2]: 99.2% | viability, T/C [3]: 62.1% | viability, T/C [4]: 59.2% | viability, T/C [5]: 44.1% | viability, T/C [6]: 36.2% | viability, T/C [7]: 106% | viability, T/C [8]: 102% | viability, T/C [9]: 60% | viability, T/C [10]: 48.7% | viability, T/C [11]: 50.9% | viability, T/C [12]: 30.2% | viability, T/C [13]: 114% | viability, T/C [14]: 87.7% | viability, T/C [15]: 62.2% | viability, T/C [16]: 54.5% | viability, T/C [17]: 44.5% | viability, T/C [18]: 28.9% | viability, T/C [19]: 99.8% | viability, T/C [20]: 85.2% | viability, T/C [21]: 66.4% | viability, T/C [22]: 51.5% | viability, T/C [23]: 41.7% | viability, T/C [24]: 39.9% | viability, T/C [25]: 94.5% | viability, T/C [26]: 97.8% | viability, T/C [27]: 67.6% | viability, T/C [28]: 47.9% | viability, T/C [29]: 42% | viability, T/C [30]: 35.9% | viability, T/C [31]: 111% | viability, T/C [32]: 94.5% | viability, T/C [33]: 66.8% | viability, T/C [34]: 55.8% | viability, T/C [35]: 47.4% | viability, T/C [36]: 34.9%

COc1cc(C2c3cc4c(cc3C(OC3OC5COC(C)OC5C(O)C3O)C3COC(=O)C23)OCO4)cc(OC)c1O (stereo unspecified) + Nc1ccc(C#CCN(C(=O)Cc2ncc(C(F)(F)F)cc2C(F)(F)F)c2ccc(F)cc2)nn1
IC50 (second compound 0.0316 µM): > 10000 nM | IC50 (second compound 0.1 µM): > 10000 nM | IC50 (second compound 0.316 µM): > 10000 nM | IC50 (second compound 1 µM): > 10000 nM | IC50 (second compound 3.16 µM): > 10000 nM | IC50 (second compound 10 µM): > 10000 nM | viability, T/C [3]: 107% | viability, T/C [4]: 104% | viability, T/C [5]: 105% | viability, T/C [6]: 95.3% | viability, T/C (second compound 0.0316 µM, first compound 3.16 µM): 82.3% | viability, T/C (second compound 0.0316 µM, first compound 10 µM): 68% | viability, T/C [9]: 107% | viability, T/C [10]: 118% | viability, T/C [11]: 97.7% | viability, T/C [12]: 88.6% | viability, T/C (second compound 0.1 µM, first compound 3.16 µM): 83.9% | viability, T/C (second compound 0.1 µM, first compound 10 µM): 58.7% | viability, T/C [15]: 103% | viability, T/C [16]: 106% | viability, T/C [17]: 109% | viability, T/C [18]: 98.8% | viability, T/C (second compound 0.316 µM, first compound 3.16 µM): 87.6% | viability, T/C (second compound 0.316 µM, first compound 10 µM): 62% | viability, T/C [21]: 99.5% | viability, T/C [22]: 105% | viability, T/C [23]: 107% | viability, T/C [24]: 95.3% | viability, T/C (second compound 1 µM, first compound 3.16 µM): 87.4% | viability, T/C (second compound 1 µM, first compound 10 µM): 72.8% | viability, T/C [27]: 112% | viability, T/C [28]: 109% | viability, T/C [29]: 109% | viability, T/C [30]: 93.3% | viability, T/C (second compound 3.16 µM, first compound 3.16 µM): 76.3% | viability, T/C (second compound 3.16 µM, first compound 10 µM): 58.8% | viability, T/C [33]: 103% | viability, T/C [34]: 107% | viability, T/C [35]: 110% | viability, T/C [36]: 97.1% | viability, T/C (second compound 10 µM, first compound 3.16 µM): 78.5% | viability, T/C (second compound 10 µM, first compound 10 µM): 67.3%

COc1cccc(OCCCN)c1-c1cc(Nc2cnc(C#N)cn2)n[nH]1 + Nc1ccc(C#CCN(C(=O)Cc2ncc(C(F)(F)F)cc2C(F)(F)F)c2ccc(F)cc2)nn1
IC50 (second compound 0.0316 µM): > 1000 nM | IC50 (second compound 0.1 µM): > 1000 nM | IC50 (second compound 0.316 µM): > 1000 nM | IC50 (second compound 1 µM): > 1000 nM | IC50 (second compound 3.16 µM): > 1000 nM | IC50 (second compound 10 µM): > 1000 nM | viability, T/C [1]: 94% | viability, T/C [2]: 94.2% | viability, T/C [3]: 76.3% | viability, T/C [4]: 66.6% | viability, T/C [5]: 74.3% | viability, T/C [6]: 73.2% | viability, T/C [7]: 91% | viability, T/C [8]: 98.2% | viability, T/C [9]: 74.8% | viability, T/C [10]: 71.8% | viability, T/C [11]: 65.4% | viability, T/C [12]: 71.1% | viability, T/C [13]: 95.5% | viability, T/C [14]: 97% | viability, T/C [15]: 67.7% | viability, T/C [16]: 66.6% | viability, T/C [17]: 79.9% | viability, T/C [18]: 77.8% | viability, T/C [19]: 96.3% | viability, T/C [20]: 78.4% | viability, T/C [21]: 73.8% | viability, T/C [22]: 70.8% | viability, T/C [23]: 83.5% | viability, T/C [24]: 73.3% | viability, T/C [25]: 90.3% | viability, T/C [26]: 88.9% | viability, T/C [27]: 68.9% | viability, T/C [28]: 67.1% | viability, T/C [29]: 65.2% | viability, T/C [30]: 83.9% | viability, T/C [31]: 103% | viability, T/C [32]: 90.3% | viability, T/C [33]: 74.3% | viability, T/C [34]: 68.5% | viability, T/C [35]: 69.1% | viability, T/C [36]: 95.5%
